Measurements published in US20230203043A1, “NOVEL IMIDAZOPYRAZINE DERIVATIVES” (Hoffmann-La Roche Inc., priority 2020, published 2023).
Counter-ions that a name gives are not always drawn.

Test system: Acinetobacter baumannii ATCC17961
Assay: Antimicrobial susceptibility testing: 90% growth inhibitory concentration (IC90) determination in Iso-Sensitest broth, OD600 growth
Type: cell-based
Conditions: Acinetobacter baumannii, ATCC17961, 16 h, read-out: A. baumannii ATCC 17961 IC90 (uM), strain ATCC 17961, OD600 growth over 16 h
Summary of the method: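 Each strain, at about 5×10^(5) CFU/ml, was incubated with twofold dilutions of compound at 35±2° C for 16 h, and IC90 was calculated from kinetic optical density measured at 600 nm during logarithmic growth.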

Compound	IC90 [µM]
CCc1cc(Nc2nccn3c(-c4cn(CC#N)nc4C(F)(F)F)cnc23)ccc1C(=O)NCC(=O)NCC1(O)CCNCC1 [Example 525, 4-[[3-[1-(cyanomethyl)-3-(trifluoromethyl)pyrazol-4-yl]imidazo[1,2-a]pyrazin-8-yl]amino]-2-ethyl-N-[2-[(4-hydroxy-4-piperidyl)methylamino]-2-oxo-ethyl]benzamide formate]	0.593
CCc1cc(Nc2nccn3c(-c4cn(CC(F)F)nc4C(F)(F)F)cnc23)ccc1C(=O)NCC(=O)N1CC2(CNC2)C1 [Example 526, N-[2-(2,6-diazaspiro[3.3]heptan-2-yl)-2-oxo-ethyl]-4-[[3-[1-(2,2-difluoroethyl)-3-(trifluoromethyl)pyrazol-4-yl]imidazo[1,2-a]pyrazin-8-yl]amino]-2-ethyl-benzamide formate]	0.306
CCc1cc(Nc2nccn3c(-c4cn(CC(F)F)nc4C(F)(F)F)cnc23)ccc1C(=O)NCC(=O)N1CCC(CN)C1 (stereo not drawn) [Example 527, N-[2-[3-(aminomethyl)pyrrolidin-1-yl]-2-oxo-ethyl]-4-[[3-[1-(2,2-difluoroethyl)-3-(trifluoromethyl)pyrazol-4-yl]imidazo[1,2-a]pyrazin-8-yl]amino]-2-ethyl-benzamide formate]	0.306
CCc1cc(Nc2nccn3c(-c4cn(CC(F)F)nc4C(F)(F)F)cnc23)ccc1C(=O)NCC(=O)N1CCCC1CN (stereo not drawn) [Example 528, N-[2-[2-(aminomethyl)pyrrolidin-1-yl]-2-oxo-ethyl]-4-[[3-[1-(2,2-difluoroethyl)-3-(trifluoromethyl)pyrazol-4-yl]imidazo[1,2-a]pyrazin-8-yl]amino]-2-ethyl-benzamide formate]	0.243
CCc1cc(Nc2nccn3c(-c4cn(CC(F)F)nc4C(F)(F)F)cnc23)ccc1C(=O)NCC(=O)NC1C2CNCC21 (stereo not drawn) [Example 529, N-[2-(3-azabicyclo[3.1.0]hexan-6-ylamino)-2-oxo-ethyl]-4-[[3-[1-(2,2-difluoroethyl)-3-(trifluoromethyl)pyrazol-4-yl]imidazo[1,2-a]pyrazin-8-yl]amino]-2-ethyl-benzamide formate]	0.248
CCc1cc(Nc2nccn3c(-c4cn(CC(F)F)nc4C(F)(F)F)cnc23)ccc1C(=O)NCC(=O)NCC1CCN1 (stereo not drawn) [Example 530, N-[2-(azetidin-2-ylmethylamino)-2-oxo-ethyl]-4-[[3-[1-(2,2-difluoroethyl)-3-(trifluoromethyl)pyrazol-4-yl]imidazo[1,2-a]pyrazin-8-yl]amino]-2-ethyl-benzamide formate]	0.327
CCc1cc(Nc2nccn3c(-c4c[nH]nc4C(F)(F)F)cnc23)ccc1C(=O)NCCCNC(=O)[C@@H]1CC[C@H](N)C1 [Example 534, N-(3-((1R,3S)-3-aminocyclopentane-1-carboxamido)propyl)-2-ethyl-4-((3-(3-(trifluoromethyl)-1H-pyrazol-4-yl)imidazo[1,2-a]pyrazin-8-yl)amino)benzamide formate]	0.251
CCc1cc(Nc2nccn3c(-c4c[nH]nc4C(F)(F)F)cnc23)ccc1C(=O)NCCCNC(=O)[C@H]1CC[C@@H](N)C1 [Example 535, N-(3-((1S,3R)-3-aminocyclopentane-1-carboxamido)propyl)-2-ethyl-4-((3-(3-(trifluoromethyl)-1H-pyrazol-4-yl)imidazo[1,2-a]pyrazin-8-yl)amino)benzamide formate]	0.247
CCc1cc(Nc2nccn3c(-c4cn(CC(F)F)nc4C(F)(F)F)cnc23)ccc1C(=O)NCCNC(=O)CCN [Example 536, N-(2-(3-aminopropanamido)ethyl)-4-((3-(1-(2,2-difluoroethyl)-3-(trifluoromethyl)-1H-pyrazol-4-yl)imidazo[1,2-a]pyrazin-8-yl)amino)-2-ethylbenzamide formate]	0.145
CCc1cc(Nc2nccn3c(-c4cn(CC(F)F)nc4C(F)(F)F)cnc23)ccc1C(=O)NCCNC(=O)CCCN [Example 537, N-(2-(4-aminobutanamido)ethyl)-4-((3-(1-(2,2-difluoroethyl)-3-(trifluoromethyl)-1H-pyrazol-4-yl)imidazo[1,2-a]pyrazin-8-yl)amino)-2-ethylbenzamide formate]	0.163
CCc1cc(Nc2nccn3c(-c4cn(CC#N)nc4C(F)(F)F)cnc23)ccc1C(=O)NCCNC(=O)CCCN [Example 540, N-(2-(4-aminobutanamido)ethyl)-4-((3-(1-(cyanomethyl)-3-(trifluoromethyl)-1H-pyrazol-4-yl)imidazo[1,2-a]pyrazin-8-yl)amino)-2-ethylbenzamide formate]	0.249

Same assay, conditions: Acinetobacter baumannii, ATCC17961, 16 h, strain ATCC 17961, OD600 growth over 16 h, read-out: A. baumannii ATCC 17961 IC90

IC90 [µM]	Compound
0.369	CCc1cc(Nc2nccn3c(-c4c[nH]nc4C(F)(F)F)cnc23)ccc1C(=O)NCCNC(=O)N1CC[C@@H](N)C1 [Example 517, (R)-3-amino-N-(2-(2-ethyl-4-((3-(3-(trifluoromethyl)-1H-pyrazol-4-yl)imidazo[1,2-a]pyrazin-8-yl)amino)benzamido)ethyl) pyrrolidine-1-carboxamide formate]
0.935	Cc1cc(Nc2nccn3c(-c4c[nH]nc4C(F)(F)F)cnc23)ccc1S(C)(=O)=NCCCN (stereo not drawn) [Example 518, ((3-Aminopropyl)imino)(methyl)(2-methyl-4-((3-(3-(trifluoromethyl)-1H-pyrazol-4-yl)imidazo[1,2-α]pyrazin-8-yl)amino)phenyl)-λ^6-sulfanone]
0.147	O=C(c1ccc(Nc2nccn3c(-c4cn(CC(F)F)nc4C(F)(F)F)cnc23)cc1Cl)N1CCN(C(=O)[C@H]2[C@@H]3CNC[C@@H]32)CC1 [Example 519, (4-((1R,5S,6r)-3-azabicyclo[3.1.0]hexane-6-carbonyl)piperazin-1-yl)(2-chloro-4-((3-(1-(2,2-difluoroethyl)-3-(trifluoromethyl)-1H-pyrazol-4-yl)imidazo[1,2-a]pyrazin-8-yl)amino)phenyl) methanone formate]
0.27	CCc1cc(Nc2nccn3c(-c4cn(CC#N)nc4C(F)(F)F)cnc23)ccc1C(=O)NCCNC(=O)N1CC[C@@H](N)C1 [Example 520, (R)-3-amino-N-(2-(4-((3-(1-(cyanomethyl)-3-(trifluoromethyl)-1H-pyrazol-4-yl)imidazo [1,2-a]pyrazin-8-yl)amino)-2-ethylbenzamido)ethyl) pyrrolidine-1-carboxamide formate]
0.38	CCc1cc(Nc2nccn3c(-c4cn(CC#N)nc4C(F)(F)F)cnc23)ccc1C(=O)NCC(=O)NCC1CNC1 [Example 521, N-[2-(azetidin-3-ylmethylamino)-2-oxo-ethyl]-4-[[3-[1-(cyanomethyl)-3-(trifluoromethyl)pyrazol-4-yl]imidazo[1,2-a]pyrazin-8-yl]amino]-2-ethyl-benzamide formate]
0.402	CCc1cc(Nc2nccn3c(-c4cn(CC#N)nc4C(F)(F)F)cnc23)ccc1C(=O)NCC(=O)NCC1CCCN1 (stereo not drawn) [Example 522, 4-[[3-[1-(cyanomethyl)-3-(trifluoromethyl)pyrazol-4-yl]imidazo[1,2-a]pyrazin-8-yl]amino]-2-ethyl-N-[2-oxo-2-(pyrrolidin-2-ylmethylamino)ethyl] benzamide formate]
0.313	CCc1cc(Nc2nccn3c(-c4cn(CC#N)nc4C(F)(F)F)cnc23)ccc1C(=O)NCC(=O)NCC1CCNC1 (stereo not drawn) [Example 523, 4-[[3-[1-(cyanomethyl)-3-(trifluoromethyl)pyrazol-4-yl]imidazo[1,2-a]pyrazin-8-yl]amino]-2-ethyl-N-[2-oxo-2-(pyrrolidin-3-ylmethylamino)ethyl] benzamide formate]
0.395	CCc1cc(Nc2nccn3c(-c4cn(CC#N)nc4C(F)(F)F)cnc23)ccc1C(=O)NCC(=O)NCC1CCNCC1 [Example 524, 4-[[3-[1-(cyanomethyl)-3-(trifluoromethyl)pyrazol-4-yl]imidazo[1,2-a]pyrazin-8-yl]amino]-2-ethyl-N-[2-oxo-2-(4-piperidylmethylamino)ethyl] benzamide formate]
0.299	CCc1cc(Nc2nccn3c(-c4c[nH]nc4C(F)(F)F)cnc23)ccc1C(=O)NCCCNC(=O)[C@H]1C[C@@H](N)C1 [Example 531, N-(3-((1s,3s)-3-aminocyclobutane-1-carboxamido)propyl)-2-ethyl-4-((3-(3-(trifluoromethyl)-1H-pyrazol-4-yl)imidazo [1,2-a]pyrazin-8-yl)amino)benzamide formate]
0.245	CCc1cc(Nc2nccn3c(-c4c[nH]nc4C(F)(F)F)cnc23)ccc1C(=O)NCCCNC(=O)[C@H]1C[C@H](N)C1 [Example 532, N-(3-((1r,3r)-3-aminocyclobutane-1-carboxamido)propyl)-2-ethyl-4-((3-(3-(trifluoromethyl)-1H-pyrazol-4-yl)imidazo [1,2-a]pyrazin-8-yl)amino)benzamide formate]
0.261	CCc1cc(Nc2nccn3c(-c4cn(CC(F)F)nc4C(F)(F)F)cnc23)ccc1C(=O)NCC(=O)N1CC2CC1CN2 (stereo not drawn) [Example 538, N-2-(2,5-diazabicyclo[2.2.1]heptan-2-yl)-2-oxo-ethyl]-4-[[3-[1-(2,2-difluoroethyl)-3-(trifluoromethyl)pyrazol-4-yl]imidazo[1,2-a]pyrazin-8-yl]amino]-2-ethyl-benzamide formate]
0.461	CCc1cc(Nc2nccn3c(-c4cn(CC(F)F)nc4C(F)F)cnc23)ccc1C(=O)N[C@H]1C[C@@H](N)C1 [Example 539, N-((1s,3s)-3-aminocyclobutyl)-4-((3-(1-(2,2-difluoroethyl)-3-(difluoromethyl)-1H-pyrazol-4-yl)imidazo[1,2-a]pyrazin-8-yl)amino)-2-ethylbenzamide]
0.246	CCc1cc(Nc2nccn3c(-c4cn(CC(F)F)nc4C(F)(F)F)cnc23)ccc1C(=O)NCCCNC(=O)[C@H]1C[C@@H](N)C1 [Example 541, N-(3-((1s,3s)-3-aminocyclobutane-1-carboxamido)propyl)-4-((3-(1-(2,2-difluoroethyl)-3-(trifluoromethyl)-1H-pyrazol-4-yl)imidazo[1,2-a]pyrazin-8-yl)amino)-2-ethylbenzamide formate]
